Experimental data reported in patent US20170007615A1, “Antibacterial Compounds” (priority 2014, published 2017).
Values after ≈ are worked out from the molar mass of the structure shown.

Tests used:
B. cepacia (ATCC 25416) = experiment: Antibacterial activity (MIC), alone and with colistin; type: cell-based, Burkholderia cepacia; conditions: Table 8; (a) No measurable antibacterial activity
[1] = tested on: K. pneumonia colistin-resistant strains; experiment: microbe, parasite or virus in culture; type: cell-based; conditions: K. pneumonia strains raised by selection with 2 or 4 μg/mL of colistin on MH agar
[2] = tested on: E. coli colistin-resistant strains; experiment: microbe, parasite or virus in culture; type: cell-based; conditions: E. coli strains raised by selection with 2 or 4 μg/mL of colistin on MH agar
[3] = tested on: A. baumannii colistin-resistant strains; experiment: microbe, parasite or virus in culture; type: cell-based; conditions: A. baumannii strains raised by selection with 2 or 4 μg/mL of colistin on MH agar
E. coli (ATCC 25922) [4] = conditions: for MIC of Compound (μg/ml) in the presence of PMBN (128 μg/ml): Table 1, (b) No effect
E. cloaceae (ATCC 13047) = conditions: Table 7; (a) No measurable antibacterial activity
S. aureus (ATCC 29213) = experiment: Antibacterial activity (MIC), Gram-positive type strain; type: cell-based, Staphylococcus aureus; conditions: Table 13; for MIC: Staphylococcus aureus, ATCC29213
E. faecalis (ATCC 29212) = experiment: as above; type: cell-based, Enteroccocus faecalis; conditions: Table 13; for MIC: Enterococcus faecalis, ATCC29212
[5] = tested on: H. influenzae (ATCC 49247); experiment: Antibacterial activity (MIC), Gram-negative type strain; type: cell-based, Haemophilus influenzae; conditions: Table 13; for MIC: Haemophilus influenzae, ATCC49247
[6] = tested on: N. gonorrheae (ATCC 49226); experiment: as above; type: cell-based, Neisseria gonorrhoeae; conditions: Table 13; for MIC: Neisseria gonorrhoeae, ATCC49226
E. coli (ATCC 25922) [7] = experiment: microbe, parasite or virus in culture; conditions: Escherichia coli, ATCC25922, read-out: MIC Compound alone, Table 1
[8] = tested on: A. baumannii (ATCC 19606); conditions: Table 4
[9] = tested on: A. baumannii (ATCC 19606); experiment: microbe, parasite or virus in culture; conditions: Acinetobacter baumannii, ATCC19606, read-out: MIC Compound alone
E. coli (NDM-1; CTX-M15) = experiment: Septicaemia infection model, survival; conditions: two doses, 100 mg/kg IV alone

Row | Molecule | MIC (S. aureus (ATCC 29213)) | MIC (E. faecalis (ATCC 29212)) | MIC [5] | MIC [6] | MIC of Compound (μg/ml) in the presence of PMBN (128 μg/ml) (E. coli (ATCC 25922) [4]) | MIC (E. coli (ATCC 25922) [7]) | also measured
1 | colistin [reference compound] |  |  |  |  |  |  | MIC colistin alone (B. cepacia (ATCC 25416)): >64^(a) μg/ml; MIC (colistin) [1]: ^(a)Raised by selection with 2 or 4 μg/mL of colistin on MH agar: MIC (colistin) = 16-32 μg/mL; MIC (colistin) [2]: ^(a)Raised by selection with 2 or 4 μg/mL of colistin on MH agar: MIC (colistin) = 16-32 μg/mL; MIC (colistin) [3]: ^(a)Raised by selection with 2 or 4 μg/mL of colistin on MH agar: MIC (colistin) = 16-32 μg/mL; MIC colistin alone (E. coli (ATCC 25922) [4]; Table 2): 2 µg/mL; MIC Compound alone (E. coli (ATCC 25922) [4]; Table 12): 4 µg/mL; MIC of Compound (μg/ml) in the presence of PMBN (32 μg/ml) (E. coli (ATCC 25922) [4]; Table 12, (b) No significant effect): 4^(b) μg/ml; MIC colistin alone (E. cloaceae (ATCC 13047)): >64^(a) μg/ml
2 | CCNC(=O)Nc1nc2cc(-c3cnc(NS(=O)(=O)N4CCCC4)nc3)cc(-c3ccc(C)cn3)c2s1 [Compound A-11, 1-Ethyl-3-[7-(5-methyl-2-pyridyl)-5-[2-(pyrrolidin-1-ylsulfonylamino)pyrimidin-5-yl]-1,3-benzothiazol-2-yl]urea] | 0.004 µg/mL (≈ 0.00743 µM) | ≤ 0.008 µg/mL | 0.06 µg/mL (≈ 0.111 µM) | 0.015 µg/mL (≈ 0.0278 µM) | 0.015 µg/mL | 2 µg/mL (≈ 3.71 µM) | 
3 | CCNC(=O)Nc1nc2cc(-c3ccn(C)c(=O)c3)cc(-c3ccccn3)c2s1 [Example 51 (WO2007/148093)] |  |  |  |  | 0.06 µg/mL | 16 µg/mL (≈ 39.5 µM) | MIC of Compound (μg/ml) in the presence of PMBN (128 μg/ml) [8]: 0.5 µg/mL; MIC [9]: 4 µg/mL (≈ 9.86 µM)
4 | CCNC(=O)Nc1nc2cc(-c3cnc(NS(=O)(=O)N(C)CCO)nc3)cc(-c3ccc(C)cn3)c2s1 [Compound A-15, 1-Ethyl-3-[5-[2-[[2-hydroxyethyl(methyl)sulfamoyl]amino]pyrimidin-5-yl]-7-(5-methyl-2-pyridyl)-1,3-benzothiazol-2-yl]urea] | 0.12 µg/mL (≈ 0.221 µM) | 0.015 µg/mL (≈ 0.0276 µM) | 0.03 µg/mL (≈ 0.0553 µM) | ≤ 0.008 µg/mL | 0.03 µg/mL | 4 µg/mL (≈ 7.37 µM) | 
5 | CCCS(=O)(=O)Nc1ncc(-c2cc(-c3ccc(C)cn3)c3sc(NC(=O)NCC)nc3c2)cn1 [Compound A-12, 1-Ethyl-3-[7-(5-methyl-2-pyridyl)-5-[2-(propylsulfonylamino)pyrimidin-5-yl]-1,3-benzothiazol-2-yl]urea] | ≤ 0.002 µg/mL | ≤ 0.008 µg/mL | 0.015 µg/mL (≈ 0.0293 µM) | ≤ 0.008 µg/mL | 0.008 µg/mL | 2 µg/mL (≈ 3.91 µM) | 
6 | CCNC(=O)Nc1nc2cc(-c3cnc([C@@H](C)OP(=O)(O)O)nc3)cc(-c3ccccn3)c2s1 [Example 152 of WO2013/138860, [(1R)-1-[5-[2-(ethylcarbamoylamino)-7-(2-pyridyl)-1,3-benzothiazol-5-yl]pyrimidin-2-yl]ethyl] dihydrogen phosphate] |  |  |  |  |  |  | survival at the end of 5 days (E. coli (NDM-1; CTX-M15)): No mice survived
7 | CCNC(=O)Nc1nc2cc(-c3cnc(NS(=O)(=O)c4ccccc4C(=O)O)nc3)cc(-c3ccccn3)c2s1 [Compound A-10, 2-[[5-[2-(Ethylcarbamoylamino)-7-(2-pyridyl)-1,3-benzothiazol-5-yl]pyrimidin-2-yl]sulfamoyl]benzoic acid] | 2 µg/mL (≈ 3.47 µM) | 0.5 µg/mL (≈ 0.869 µM) | 4 µg/mL (≈ 6.95 µM) | 0.25 µg/mL (≈ 0.434 µM) | 4 µg/mL | > 64 µg/mL | 
8 | N-(5-(2-(3-ethylureido)-7-(pyridin-2-yl)benzo[d]thiazol-5-yl)pyrimidin-2-yl)morpholine-4-sulfonamide [Compound A-43] |  |  |  |  |  |  | MIC vs. S. aureus (ATCC 29213) (S. aureus (ATCC 29213)): 0.12 µg/mL; MIC vs. E. faecalis (ATCC 29212) (E. faecalis (ATCC 29212)): <=0.008 μg/ml; MIC vs. H. influenzae (ATCC 49247) [5]: 0.03 µg/mL; MIC vs. N. gonorrheae (ATCC 49226) [6]: <=0.008 μg/ml
9 | CCNC(=O)Nc1nc2cc(-c3cnc(NS(=O)(=O)C(C)(C)CO)nc3)cc(-c3ccc(C)cn3)c2s1 [Compound A-14, 1-Ethyl-3-[5-[2-[(2-hydroxy-1,1-dimethyl-ethyl)sulfonylamino]pyrimidin-5-yl]-7-(5-methyl-2-pyridyl)-1,3-benzothiazol-2-yl]urea] | 0.03 µg/mL (≈ 0.0554 µM) | ≤ 0.008 µg/mL | 0.015 µg/mL (≈ 0.0277 µM) | 0.015 µg/mL (≈ 0.0277 µM) | 0.03 µg/mL | 4 µg/mL (≈ 7.38 µM) | 
10 | CCNC(=O)Nc1nc2cc(-c3cnc(NS(=O)(=O)CC)nc3)cc(-c3ccccn3)c2s1 [Compound A-36, N-(5-(2-(3-ethylureido)-7-(pyridin-2-yl)benzo[d]thiazol-5-yl)pyrimidin-2-yl)ethanesulfonamide] | 0.25 µg/mL (≈ 0.517 µM) | ≤ 0.008 µg/mL | 0.03 µg/mL (≈ 0.062 µM) | ≤ 0.008 µg/mL |  |  | 
11 | CCNC(=O)Nc1nc2cc(-c3cnc(NS(=O)(=O)N(C)C)nc3)cc(-c3ccccn3)c2s1 [Compound A-32, 1-[5-[2-(dimethylsulfamoylamino)pyrimidin-5-yl]-7-(2-pyridyl)-1,3-benzothiazol-2-yl]-3-ethyl urea] | 0.12 µg/mL (≈ 0.241 µM) | 0.015 µg/mL (≈ 0.0301 µM) | 0.015 µg/mL (≈ 0.0301 µM) | 0.03 µg/mL (≈ 0.0602 µM) |  |  | 
12 | CCNC(=O)Nc1nc2cc(-c3cnc(NS(=O)(=O)C4CCCC4)nc3)cc(-c3ccc(C)cn3)c2s1 [Compound A-21, 1-[5-[2-(cyclopentylsulfonylamino)pyrimidin-5-yl]-7-(5-methyl-2-pyridyl)-1,3-benzothiazol-2-yl]-3-ethyl-urea] | ≤ 0.002 µg/mL | ≤ 0.008 µg/mL | 0.03 µg/mL (≈ 0.0558 µM) | ≤ 0.008 µg/mL |  |  | MIC of Compound (μg/ml) in the presence of PMBN (128 μg/ml) [8]: 0.03 µg/mL; MIC [9]: 1 µg/mL (≈ 1.86 µM)
13 | CCNC(=O)Nc1nc2cc(-c3cnc(C(C)(O)CO)nc3)cc(-c3ncc(C)cn3)c2s1 (centres unmarked) [Compound A-8, 1-[5-[2-(1,2-Dihydroxy-1-methyl-ethyl)pyrimidin-5-yl]-7-(5-methylpyrimidin-2-yl)-1,3-benzothiazol-2-yl]-3-ethyl-urea] |  |  |  |  | 0.06 µg/mL | 4 µg/mL (≈ 8.59 µM) | MIC of Compound (μg/ml) in the presence of PMBN (128 μg/ml) [8]: 0.25 µg/mL; MIC [9]: 2 µg/mL (≈ 4.3 µM)
14 | CCNC(=O)Nc1nc2cc(-c3ccc(N4CCCS4(=O)=O)nc3)cc(-c3ccccn3)c2s1 [Compound A-25, 1-[5-[6-(1,1-dioxo-1,2-thiazolidin-2-yl)-3-pyridyl]-7-(2-pyridyl)-1,3-benzothiazol-2-yl]-3-ethylurea] | 0.06 µg/mL (≈ 0.121 µM) | 0.06 µg/mL (≈ 0.121 µM) | 1 µg/mL (≈ 2.02 µM) | 0.5 µg/mL (≈ 1.01 µM) |  |  | 
15 | CCNC(=O)Nc1nc2cc(-c3cnc(NS(=O)(=O)CC)nc3)cc(-c3ccc(C)cn3)c2s1 [Compound A-47, N-(5-(2-(3-ethylureido)-7-(5-methylpyridin-2-yl)benzo[d]thiazol-5-yl)pyrimidin-2-yl)ethanesulfonamide] | 0.015 µg/mL (≈ 0.0301 µM) | ≤ 0.008 µg/mL | ≤ 0.008 µg/mL | ≤ 0.008 µg/mL |  |  | 
16 | CCNC(=O)Nc1nc2cc(-c3cnc(NS(=O)(=O)NC)nc3)cc(-c3ccccn3)c2s1 [Compound A-41, 1-ethyl-3-[5-[2-(methylsulfamoylamino)pyrimidin-5-yl]-7-(2-pyridyl)-1,3-benzothiazol-2-yl]urea] | 0.5 µg/mL (≈ 1.03 µM) | ≤ 0.008 µg/mL | 0.06 µg/mL (≈ 0.124 µM) | 0.015 µg/mL (≈ 0.031 µM) |  |  | 
17 | CCNC(=O)Nc1nc2cc(-c3cnc(NS(=O)(=O)NCC)nc3)cc(-c3ccccn3)c2s1 [Compound A-37, 1-ethyl-3-[5-[2-(ethylsulfamoylamino)pyrimidin-5-yl]-7-(2-pyridyl)-1,3-benzothiazol-2-yl]urea] | 0.25 µg/mL (≈ 0.501 µM) | 0.015 µg/mL (≈ 0.0301 µM) | 0.12 µg/mL (≈ 0.241 µM) | 0.03 µg/mL (≈ 0.0602 µM) |  |  | 
18 | CCNC(=O)Nc1nc2cc(-c3cnc(NS(=O)(=O)C4CCNC4)nc3)cc(-c3ccc(C)cn3)c2s1 (centres unmarked) [Compound A-53, N-(5-(2-(3-ethylureido)-7-(5-methylpyridin-2-yl)benzo[d]thiazol-5-yl)pyrimidin-2-yl)pyrrolidine-3-sulfonamide] | > 64 µg/mL | 0.5 µg/mL (≈ 0.928 µM) | > 64 µg/mL | 2 µg/mL (≈ 3.71 µM) |  |  | 
19 | N-(5-(2-(3-ethylureido)-7-(5-methylpyridin-2-yl)benzo[d]thiazol-5-yl)pyrimidin-2-yl)-N-methylmethanesulfonamide [Compound A-29] |  |  |  |  |  |  | MIC vs. S. aureus (ATCC 29213) (S. aureus (ATCC 29213)): 0.25 µg/mL; MIC vs. E. faecalis (ATCC 29212) (E. faecalis (ATCC 29212)): 0.06 µg/mL; MIC vs. H. influenzae (ATCC 49247) [5]: 2 µg/mL; MIC vs. N. gonorrheae (ATCC 49226) [6]: 0.25 µg/mL
